Data published in ChEMBL document CHEMBL5715958 (Mol Cancer Res, 2018).
Blank lines part the entries; values can stand above or below the compound they belong to. Active and inactive are the calls of the source. No cut-off for these calls is given here.

Assays:
[1] = target: Tyrosine-protein kinase Lyn (Homo sapiens) (UniProt P07948); assay: Inhibition of MIB binding to LYN in human NCI-H2228 cells at 0.01 to 10 uM incubated for 1 hr by MIB/MS competitive binding analysis; format: cell-based; details: dose 0.01-10 µM
[2] = target: Tyrosine-protein kinase Yes (Homo sapiens) (UniProt P07947); assay: Inhibition of MIB binding to YES1 in human NCI-H2228 cells at 0.01 to 10 uM incubated for 1 hr by MIB/MS competitive binding analysis; format: cell-based; details: dose 0.01-10 µM
[3] = target: Calcium/calmodulin-dependent protein kinase type II subunit beta (Homo sapiens, UniProt Q13554); assay: Inhibition of human CAMK2beta preincubated with compound for 20 mins followed by [33P]ATP addition and measured after 2 hrs by filter binding method
[4] = target: Calcium/calmodulin-dependent protein kinase type II subunit delta (Homo sapiens, UniProt Q13557); assay: Inhibition of human CAMK2delta preincubated with compound for 20 mins followed by [33P]ATP addition and measured after 2 hrs by filter binding method
[5] = target: Calcium/calmodulin-dependent protein kinase type II subunit gamma (Homo sapiens, UniProt Q13555); assay: Inhibition of human CAMK2gamma preincubated with compound for 20 mins followed by [33P]ATP addition and measured after 2 hrs by filter binding method
L-M(TK-) = assay: Effect on beta-catenin protein level in mouse L-M(TK-) cells at 5 uM incubated for 6 hrs by Western blotting analysis; format: functional, cell-based
RKO = assay: Effect on beta-catenin protein level in human RKO cells at 5 uM incubated for 6 hrs by Western blotting analysis; format: functional, cell-based
[6] = target: Glycogen synthase kinase-3 beta (Homo sapiens) (UniProt P49841); assay: Inhibition of MIB binding to GSK3beta in human NCI-H2228 cells at 0.01 to 10 uM incubated for 1 hr by Western blotting analysis; format: cell-based; details: dose 0.01-10 µM
[7] = target: Cyclin-dependent kinase 4 (Homo sapiens) (UniProt P11802); assay: Inhibition of MIB binding to CDK4 in human NCI-H2228 cells at 0.01 to 10 uM incubated for 1 hr by Western blotting analysis; format: cell-based; details: dose 0.01-10 µM
[8] = target: Tyrosine-protein kinase receptor UFO (Homo sapiens) (UniProt P30530); assay: Inhibition of MIB binding to AXL in human NCI-H2228 cell lysate at high dose incubated for 1 hr by Western blotting analysis; format: subcellular; details: dose 3-3000 µM
[9] = target: Dual specificity mitogen-activated protein kinase kinase 2 (Homo sapiens) (UniProt P36507); assay: Inhibition of MIB binding to MEK2 in human NCI-H2228 cell lysate at 3 to 3000 uM pre-incubated with MIB followed by compound addition measured after 1 hr by Western blotting analysis; format: subcellular; details: dose 3-3000 µM
[10] = target: Dual specificity mitogen-activated protein kinase kinase 2 (Homo sapiens) (UniProt P36507); assay: Inhibition of MIB binding to MEK2 in human NCI-H2228 cell lysate at high dose incubated for 1 hr by Western blotting analysis; format: subcellular; details: dose 3-3000 µM
Mus musculus [11] = assay: Inhibition of MIB binding to MEK1 in mouse kidney at 3 mg/kg, po measured after 2 hr by MIB/MS competitive binding analysis; format: functional, organism-based
Mus musculus [12] = assay: Inhibition of MIB binding to MEK2 in mouse kidney at 3 mg/kg, po measured after 2 hr by MIB/MS competitive binding analysis; format: functional, organism-based
[13] = target: Dual specificity mitogen-activated protein kinase kinase 1 (Homo sapiens) (UniProt Q02750); assay: Inhibition of MIB binding to MEK1 in human NCI-H2228 cells at 3 to 3000 uM incubated for 1 hr by Western blotting analysis; format: cell-based; details: dose 3-3000 µM
[14] = target: Dual specificity mitogen-activated protein kinase kinase 1 (Homo sapiens) (UniProt Q02750); assay: Inhibition of MIB binding to MEK1 in human NCI-H2228 cell lysate at 3 to 3000 uM pre-incubated with MIB followed by compound addition measured after 1 hr by Western blotting analysis; format: subcellular; details: dose 3-3000 µM
[15] = target: Tyrosine-protein kinase receptor UFO (Homo sapiens) (UniProt P30530); assay: Inhibition of MIB binding to AXL in human NCI-H2228 cells at 3 to 3000 uM incubated for 1 hr by Western blotting analysis; format: cell-based; details: dose 3-3000 µM
[16] = target: Dual specificity mitogen-activated protein kinase kinase 1 (Homo sapiens) (UniProt Q02750); assay: Inhibition of MIB binding to MEK1 in human NCI-H2228 cell lysate at high dose incubated for 1 hr by Western blotting analysis; format: subcellular
[17] = target: Tyrosine-protein kinase receptor UFO (Homo sapiens) (UniProt P30530); assay: Inhibition of MIB binding to AXL in human NCI-H2228 cell lysate at 3 to 3000 uM pre-incubated with MIB followed by compound addition measured after 1 hr by Western blotting analysis; format: subcellular; details: dose 3-3000 µM
[18] = target: Dual specificity mitogen-activated protein kinase kinase 2 (Homo sapiens) (UniProt P36507); assay: Inhibition of MIB binding to MEK2 in human NCI-H2228 cells at 3 to 3000 uM incubated for 1 hr by Western blotting analysis; format: cell-based; details: dose 3-3000 µM

Sequence of Dual specificity mitogen-activated protein kinase kinase 2 (Homo sapiens) (P36507 whole entry): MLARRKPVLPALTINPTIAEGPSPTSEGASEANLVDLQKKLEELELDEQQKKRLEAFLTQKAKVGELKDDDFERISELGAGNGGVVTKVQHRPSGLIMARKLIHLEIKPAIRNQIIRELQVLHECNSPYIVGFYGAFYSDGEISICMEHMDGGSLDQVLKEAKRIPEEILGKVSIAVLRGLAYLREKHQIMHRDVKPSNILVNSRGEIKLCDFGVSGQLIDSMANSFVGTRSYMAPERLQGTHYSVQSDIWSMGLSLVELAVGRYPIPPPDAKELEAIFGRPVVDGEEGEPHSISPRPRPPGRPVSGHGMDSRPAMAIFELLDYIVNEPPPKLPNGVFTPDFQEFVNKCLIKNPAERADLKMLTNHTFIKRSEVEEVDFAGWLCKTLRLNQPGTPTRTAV
Sequence of Dual specificity mitogen-activated protein kinase kinase 1 (Homo sapiens) (Q02750 whole entry): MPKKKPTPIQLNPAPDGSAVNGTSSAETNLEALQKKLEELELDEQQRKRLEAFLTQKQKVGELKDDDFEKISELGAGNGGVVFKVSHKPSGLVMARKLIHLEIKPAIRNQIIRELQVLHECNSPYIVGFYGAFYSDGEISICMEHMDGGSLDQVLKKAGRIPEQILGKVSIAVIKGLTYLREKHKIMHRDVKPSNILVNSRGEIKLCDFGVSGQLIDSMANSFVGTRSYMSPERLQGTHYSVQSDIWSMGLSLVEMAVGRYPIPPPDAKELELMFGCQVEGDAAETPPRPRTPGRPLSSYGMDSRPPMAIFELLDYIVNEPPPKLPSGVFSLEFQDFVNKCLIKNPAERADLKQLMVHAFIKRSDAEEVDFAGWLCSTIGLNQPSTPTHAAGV
Sequence of Tyrosine-protein kinase receptor UFO (Homo sapiens) (P30530 whole entry): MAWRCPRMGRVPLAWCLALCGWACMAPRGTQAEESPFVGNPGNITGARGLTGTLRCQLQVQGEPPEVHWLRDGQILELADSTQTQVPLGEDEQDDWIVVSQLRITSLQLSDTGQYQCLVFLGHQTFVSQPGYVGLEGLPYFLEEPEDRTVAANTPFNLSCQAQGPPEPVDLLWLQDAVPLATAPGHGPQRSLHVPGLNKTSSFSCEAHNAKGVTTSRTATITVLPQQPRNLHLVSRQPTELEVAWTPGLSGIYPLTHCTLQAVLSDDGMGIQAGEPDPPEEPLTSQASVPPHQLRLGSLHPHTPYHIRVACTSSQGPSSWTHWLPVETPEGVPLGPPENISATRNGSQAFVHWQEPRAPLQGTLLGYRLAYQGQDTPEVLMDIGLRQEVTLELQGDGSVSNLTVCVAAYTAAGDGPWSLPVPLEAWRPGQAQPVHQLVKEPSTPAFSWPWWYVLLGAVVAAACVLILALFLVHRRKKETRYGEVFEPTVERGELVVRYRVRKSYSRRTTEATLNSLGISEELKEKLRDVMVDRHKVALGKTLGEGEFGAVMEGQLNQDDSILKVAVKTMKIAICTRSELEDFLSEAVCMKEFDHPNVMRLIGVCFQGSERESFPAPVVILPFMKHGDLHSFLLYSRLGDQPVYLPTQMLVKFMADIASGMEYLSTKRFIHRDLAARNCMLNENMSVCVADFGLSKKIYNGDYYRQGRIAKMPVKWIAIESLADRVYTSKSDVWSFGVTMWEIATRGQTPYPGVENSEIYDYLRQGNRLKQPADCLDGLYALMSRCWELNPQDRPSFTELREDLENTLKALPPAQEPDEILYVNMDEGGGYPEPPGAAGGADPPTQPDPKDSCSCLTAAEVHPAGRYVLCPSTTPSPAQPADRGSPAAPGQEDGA
Sequence of Calcium/calmodulin-dependent protein kinase type II subunit beta (Q13554 whole entry): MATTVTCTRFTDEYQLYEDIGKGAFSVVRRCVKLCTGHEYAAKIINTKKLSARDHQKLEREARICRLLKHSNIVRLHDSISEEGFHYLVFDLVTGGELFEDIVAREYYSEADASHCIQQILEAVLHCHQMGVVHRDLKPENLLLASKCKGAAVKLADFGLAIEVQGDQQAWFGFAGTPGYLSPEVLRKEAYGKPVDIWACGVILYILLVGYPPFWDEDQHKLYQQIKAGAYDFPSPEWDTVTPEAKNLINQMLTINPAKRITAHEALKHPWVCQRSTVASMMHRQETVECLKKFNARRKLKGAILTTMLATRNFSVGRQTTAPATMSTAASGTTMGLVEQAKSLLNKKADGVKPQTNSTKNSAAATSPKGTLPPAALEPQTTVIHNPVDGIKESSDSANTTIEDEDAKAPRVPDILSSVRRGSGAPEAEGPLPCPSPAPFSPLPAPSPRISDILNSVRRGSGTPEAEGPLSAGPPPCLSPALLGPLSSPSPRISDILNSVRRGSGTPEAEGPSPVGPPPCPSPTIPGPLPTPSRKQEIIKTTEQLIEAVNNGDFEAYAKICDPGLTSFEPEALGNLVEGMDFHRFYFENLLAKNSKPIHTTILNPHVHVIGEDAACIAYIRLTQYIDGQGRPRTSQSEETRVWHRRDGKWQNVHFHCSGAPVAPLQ
Sequence of Calcium/calmodulin-dependent protein kinase type II subunit delta (Q13557 whole entry): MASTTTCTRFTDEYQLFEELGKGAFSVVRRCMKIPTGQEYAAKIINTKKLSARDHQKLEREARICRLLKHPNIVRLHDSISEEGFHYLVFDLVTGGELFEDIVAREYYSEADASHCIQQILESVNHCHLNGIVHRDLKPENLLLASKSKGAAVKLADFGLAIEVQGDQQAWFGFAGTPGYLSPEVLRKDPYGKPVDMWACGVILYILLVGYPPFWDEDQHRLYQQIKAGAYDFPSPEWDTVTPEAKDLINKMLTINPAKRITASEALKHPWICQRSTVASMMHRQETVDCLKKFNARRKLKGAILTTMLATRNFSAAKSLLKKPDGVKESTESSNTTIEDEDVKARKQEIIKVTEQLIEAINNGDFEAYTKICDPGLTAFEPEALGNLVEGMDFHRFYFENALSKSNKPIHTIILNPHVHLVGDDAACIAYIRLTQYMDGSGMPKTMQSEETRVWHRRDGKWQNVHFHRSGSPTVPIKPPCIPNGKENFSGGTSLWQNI
Sequence of Glycogen synthase kinase-3 beta (Homo sapiens) (P49841 whole entry, looked up): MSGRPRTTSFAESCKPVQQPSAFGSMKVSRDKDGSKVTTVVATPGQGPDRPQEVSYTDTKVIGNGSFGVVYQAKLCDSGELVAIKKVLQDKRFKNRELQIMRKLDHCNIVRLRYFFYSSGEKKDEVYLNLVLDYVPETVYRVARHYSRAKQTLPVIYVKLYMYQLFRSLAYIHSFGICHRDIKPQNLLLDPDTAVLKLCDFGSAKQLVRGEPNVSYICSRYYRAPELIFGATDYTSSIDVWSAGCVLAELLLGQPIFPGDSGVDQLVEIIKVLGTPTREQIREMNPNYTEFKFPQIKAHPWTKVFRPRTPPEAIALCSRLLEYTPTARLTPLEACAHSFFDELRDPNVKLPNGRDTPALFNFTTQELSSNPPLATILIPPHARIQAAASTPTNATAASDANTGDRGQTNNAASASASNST
Sequence of Cyclin-dependent kinase 4 (Homo sapiens) (P11802 whole entry): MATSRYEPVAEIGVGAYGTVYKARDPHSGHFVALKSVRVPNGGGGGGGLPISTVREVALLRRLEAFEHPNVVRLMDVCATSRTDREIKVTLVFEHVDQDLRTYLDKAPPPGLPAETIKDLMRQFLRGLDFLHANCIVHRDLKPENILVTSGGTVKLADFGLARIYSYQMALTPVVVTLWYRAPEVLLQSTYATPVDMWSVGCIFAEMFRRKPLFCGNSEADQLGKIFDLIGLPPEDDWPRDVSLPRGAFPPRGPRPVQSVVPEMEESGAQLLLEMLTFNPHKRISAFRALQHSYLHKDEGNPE
Sequence of Tyrosine-protein kinase Lyn (Homo sapiens) (P07948 2-512 limits assumed): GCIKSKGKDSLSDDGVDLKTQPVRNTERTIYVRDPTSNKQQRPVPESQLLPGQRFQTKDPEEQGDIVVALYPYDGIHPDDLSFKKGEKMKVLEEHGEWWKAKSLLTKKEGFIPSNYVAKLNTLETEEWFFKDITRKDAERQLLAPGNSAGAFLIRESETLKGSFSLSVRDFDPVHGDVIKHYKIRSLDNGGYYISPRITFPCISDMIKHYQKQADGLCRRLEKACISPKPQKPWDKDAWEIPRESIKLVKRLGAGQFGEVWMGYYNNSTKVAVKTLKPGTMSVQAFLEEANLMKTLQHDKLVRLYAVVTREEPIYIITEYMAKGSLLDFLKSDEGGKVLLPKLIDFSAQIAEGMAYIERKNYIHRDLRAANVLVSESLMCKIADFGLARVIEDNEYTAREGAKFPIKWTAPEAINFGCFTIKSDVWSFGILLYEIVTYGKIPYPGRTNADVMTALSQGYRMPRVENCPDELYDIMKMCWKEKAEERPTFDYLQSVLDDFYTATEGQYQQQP
Sequence of Calcium/calmodulin-dependent protein kinase type II subunit gamma (Q13555 whole entry): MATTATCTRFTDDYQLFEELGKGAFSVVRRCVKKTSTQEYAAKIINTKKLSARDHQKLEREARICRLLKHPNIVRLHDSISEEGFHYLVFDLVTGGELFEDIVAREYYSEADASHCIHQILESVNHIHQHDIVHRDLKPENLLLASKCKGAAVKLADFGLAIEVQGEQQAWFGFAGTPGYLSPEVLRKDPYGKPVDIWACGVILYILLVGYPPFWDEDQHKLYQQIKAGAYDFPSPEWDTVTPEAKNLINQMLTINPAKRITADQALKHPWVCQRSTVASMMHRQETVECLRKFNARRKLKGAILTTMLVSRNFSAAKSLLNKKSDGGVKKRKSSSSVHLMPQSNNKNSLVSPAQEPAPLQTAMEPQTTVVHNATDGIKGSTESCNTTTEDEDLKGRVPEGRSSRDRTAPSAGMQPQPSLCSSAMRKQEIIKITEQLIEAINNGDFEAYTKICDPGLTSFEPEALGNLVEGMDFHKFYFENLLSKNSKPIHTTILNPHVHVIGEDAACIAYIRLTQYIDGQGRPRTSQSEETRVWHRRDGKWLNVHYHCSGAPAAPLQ

- inhibition [1]: Active
- inhibition [2]: Active
SMILES: Cc1nc(Nc2ncc(C(=O)Nc3c(C)cccc3Cl)s2)cc(N2CCN(CCO)CC2)n1

- IC50 [3]: 0.0035 µM
- IC50 [4]: 0.0026 µM
- IC50 [5]: 0.052 µM
SMILES: CCN1CCN(Cc2ccc(Nc3ncc(F)c(-c4cc(F)c5nc(C)n(C(C)C)c5c4)n3)nc2)CC1 [ABEMACICLIB]

SMILES: CC(=O)c1c(C)c2cnc(Nc3ccc(N4CCNCC4)cn3)nc2n(C2CCCC2)c1=O [PALBOCICLIB]
- Activity (L-M(TK-)): inactive
- IC50 [3]: 1.6 µM
- Activity (RKO): inactive

- inhibition [6]: inactive
- inhibition [7]: Active
SMILES: CN(C)C(=O)c1cc2cnc(Nc3ccc(N4CCNCC4)cn3)nc2n1C1CCCC1

- inhibition [8]: inactive
- inhibition [9]: Active
- inhibition [10]: Active
- inhibition [13]: Active
- inhibition [14]: Active
- inhibition [15]: inactive
- inhibition [16]: Active
- inhibition [17]: inactive
- inhibition [18]: Active
SMILES: CC(=O)Nc1cccc(-n2c(=O)n(C3CC3)c(=O)c3c(Nc4ccc(I)cc4F)n(C)c(=O)c(C)c32)c1
- inhibition (Mus musculus [11]): Active
- inhibition (Mus musculus [12]): Active
